Measurements as given in patent US20230137849A1, “USE OF A COMPOUND OF THE DIURETICS CLASS FOR TREATING CANCER” (AZELEAD, priority 2017, published 2023).
Like-named read-outs stand apart in the source and are kept apart here.

Columns and labels:
[1] = system: zebrafish embryo; conditions: in vivo
Procedure: The toxicity study is carried out over 72 hours. The embryos are treated at 25 hpf with the doses used for the test of chemical compounds of each of the compounds, in a 96-well plate, in a final volume of 100 μl of the embryonic growth medium. The embryos are incubated 72 h at 28° C. The medium is changed every 24 hours. The survival rate of embryos and the appearance of developmental defects are analyzed daily.
At the same time, we analyzed the toxicity of althiazide after balancing with a solution containing althiazide at concentrations of 1 μM, 10 μM, 100 μM, 1000 μM for 24, 48 and 72 hours. The toxicity study was based on analysis of the percentage viability of the embryos after treatment. At concentrations of 1 μM, 10 μM and 100 μM, althiazide causes no toxicity even after 72 hours of treatment. A 50% toxicity is observed after treatment for 24 hours, the althiazide at the concentration of 1 mM.

[2] = system: 4T1 cells; type: cell-based, mouse; conditions: FIG. 8
Procedure: The cytotoxicity tests are carried out in cell culture in 96-well plates, on the 4T1 cell line. The cells are maintained in a DMEM culture medium supplemented with 10% fetal calf serum (control condition) or placed in the presence of an MTT solution (3-(4,5-dimethylthiazol-2-yl)-2,5-diphenyl tetrazolium bromide) at 1 mg/ml in DMEM medium supplemented with 10% fetal calf serum (100 μl per well). The cells are incubated at 37° C. and 5% CO2 for 4 hours. The reaction is stopped by the addition of 100 μl of a solution containing 10% of SDS and 0.01 M of HCl. The cells are placed in an incubator at 37° C. and 5% CO2 for 2 hours. The absorbance is measured between 570 and 590 nm. The negative control is performed on a well without cells, containing 200 μl of a 1 mg/ml solution of MTT diluted in DMEM culture medium supplemented with 10% fetal calf serum. The average of the measurements obtained is compared with the control wells: (average value of the compounds treated/average value of the controls)*100=% of the average value.
The 4T1 cells are derived from tumors of the mammary gland in mice.
In order to study the cytotoxic effects of althiazide in vitro, we analyze the cell death induced by treatment with althiazide by tetrazolium salt labeling MTT (3-(4,5-dimethylthiazol-2-yl)-2,5-diphenyltetrazolium bromide) on 4T1 cells. The amount of living cells in the well is assayed by spectrometry. The results are compared with those obtained after treatment with the control solution (FIG. 8). In this test, we observe a very low mortality of cells after treatment with althiazide (80% of living cells at the highest dose 100 μM). Cells treated with dasatinib have a much higher mortality rate, at much lower doses (80% live cells at the lowest 10 nM dose and 20% live cells at 100 μM).

Q: Which “toxicity on the embryo in comparison with althiazide doses” value [1] does the source give for `Cc1nc(Nc2ncc(C(=O)Nc3c(C)cccc3Cl)s2)cc(N2CCN(CCO)CC2)n1` [dasatinib] here?
A: very high toxicity

Q: What about the “living cells (MTT)” value ([2]; highest dose 100 μM) of the same compound?
A: 20%

Q: And the “living cells (MTT)” value ([2]; lowest dose 10 nM)?
A: 80%
